# How the values were obtained:
# [1] = target: T1, P-gp (ABCB1) (Homo sapiens, UniProt P08183); test: Activation of human P-gp expressed in high five insect cell membrane vesicles by measuring the vanadate-sensitive ATPase activity of P-gp at 2.5 uM preincubated for 5 mins in the presence of sodium orthovanadate measured after 20 mins by colorimetric method; conditions: read-out: Activity
# [2] = target: T1, P-gp (ABCB1); test: Activation of human P-gp expressed in high five insect cell membrane vesicles by measuring the vanadate-sensitive ATPase activity of P-gp at 0.5 uM preincubated for 5 mins in the presence of sodium orthovanadate measured after 20 mins by colorimetric method; conditions: read-out: Activity
# T1 sequence (P08183 whole entry): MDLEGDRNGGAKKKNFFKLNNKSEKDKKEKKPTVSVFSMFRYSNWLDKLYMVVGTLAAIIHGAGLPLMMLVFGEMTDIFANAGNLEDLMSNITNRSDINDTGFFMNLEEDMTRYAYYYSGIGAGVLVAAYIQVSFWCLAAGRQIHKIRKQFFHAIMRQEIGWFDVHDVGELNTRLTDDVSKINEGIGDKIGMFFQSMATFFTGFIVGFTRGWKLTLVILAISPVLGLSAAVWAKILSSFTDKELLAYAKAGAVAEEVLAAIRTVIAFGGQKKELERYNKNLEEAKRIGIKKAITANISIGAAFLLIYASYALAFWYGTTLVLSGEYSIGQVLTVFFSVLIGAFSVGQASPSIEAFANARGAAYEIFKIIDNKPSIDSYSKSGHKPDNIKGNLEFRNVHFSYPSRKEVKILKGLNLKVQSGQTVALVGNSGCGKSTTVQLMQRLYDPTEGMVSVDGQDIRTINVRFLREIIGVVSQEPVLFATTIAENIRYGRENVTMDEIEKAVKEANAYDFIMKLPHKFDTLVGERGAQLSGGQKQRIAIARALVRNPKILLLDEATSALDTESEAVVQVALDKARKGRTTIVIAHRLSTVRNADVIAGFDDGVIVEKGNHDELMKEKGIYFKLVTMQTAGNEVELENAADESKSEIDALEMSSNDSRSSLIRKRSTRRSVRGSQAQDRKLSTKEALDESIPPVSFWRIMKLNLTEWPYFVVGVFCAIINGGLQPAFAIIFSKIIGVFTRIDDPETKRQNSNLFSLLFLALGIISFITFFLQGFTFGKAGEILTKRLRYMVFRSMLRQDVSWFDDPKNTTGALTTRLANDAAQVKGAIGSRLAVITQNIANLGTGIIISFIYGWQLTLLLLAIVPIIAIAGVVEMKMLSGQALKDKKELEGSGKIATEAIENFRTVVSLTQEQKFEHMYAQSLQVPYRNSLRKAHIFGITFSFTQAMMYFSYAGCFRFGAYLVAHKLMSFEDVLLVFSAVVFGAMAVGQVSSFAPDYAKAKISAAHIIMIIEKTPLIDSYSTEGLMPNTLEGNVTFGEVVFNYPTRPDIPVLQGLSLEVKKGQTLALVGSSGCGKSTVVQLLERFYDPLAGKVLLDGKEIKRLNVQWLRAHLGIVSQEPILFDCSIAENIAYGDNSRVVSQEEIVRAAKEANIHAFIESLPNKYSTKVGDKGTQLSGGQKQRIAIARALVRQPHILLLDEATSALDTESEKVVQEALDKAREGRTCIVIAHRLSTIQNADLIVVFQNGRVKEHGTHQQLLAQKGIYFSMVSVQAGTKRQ
SMILES,"activity at 20 min, 2.5 µM [1] [%]","activity at 20 min, 0.5 µM [2] [%]"
COc1cc(CC(=O)N[C@H](c2nc(C(=O)NC3CCC(F)(F)CC3)cs2)C(C)C)cc(OC)c1OC,70.2,–
COc1cc(C(=O)N[C@H](c2nc(C(=O)Nc3ccccc3C(=O)c3ccc(N=[N+]=[N-])cc3)cs2)C(C)C)cc(OC)c1OC,169,148
CC(C)[C@H](NC(=O)c1ccccc1N=[N+]=[N-])c1nc(C(=O)Nc2ccccc2C(=O)c2ccccc2)cs1,182,142
CC(C)[C@H](NC(=O)c1cnc2ccccc2c1)c1nc(C(=O)NC2CCC(F)(F)CC2)cs1,83.9,–
CC(C)[C@H](NC(=O)c1ccc(N=[N+]=[N-])cc1)c1nc(C(=O)Nc2ccccc2C(=O)c2ccccc2)cs1,164,135
COc1cc(C(=O)N[C@H](c2nc(C(=O)N3CCC(=O)CC3)cs2)C(C)C)cc(OC)c1OC,≤ 10,≤ 10
COc1cc(C(=O)NC(c2nc(C(=O)NCC3CCC(N)CC3)cs2)C(C)C)cc(OC)c1OC (stereo not drawn),≤ 10,≤ 10
COc1cc(C(=O)N[C@H](c2nc(C(=O)NC3CCOCC3)cs2)C(C)C)cc(OC)c1OC,≤ 10,26.9
COc1ccc(C(=O)N[C@H](c2nc(C(=O)NC3CCC(F)(F)CC3)cs2)C(C)C)cc1,35.8,–
COc1cc(C(=O)N[C@H](c2nc(C(=O)NCC3CCNCC3)cs2)C(C)C)cc(OC)c1OC,≤ 10,23
CC(C)[C@H](NC(=O)c1ccccc1)c1nc(C(=O)NC2CCC(F)(F)CC2)cs1,10.5,–
COc1cc(C(=O)C(=O)N[C@H](c2nc(C(=O)NC3CCC(F)(F)CC3)cs2)C(C)C)cc(OC)c1OC,178,–
COc1cc(C(=O)N[C@H](c2nc(C(=O)NC3CCC3)cs2)C(C)C)cc(OC)c1OC,≤ 10,25.3
COc1cc(C(=O)N[C@H](c2nc(C(=O)NC3CCS(=O)(=O)CC3)cs2)C(C)C)cc(OC)c1OC,≤ 10,≤ 10
CC(C)[C@H](NC(=O)C1CCOCC1)c1nc(C(=O)NC2CCC(F)(F)CC2)cs1,≤ 10,–
CC(C)[C@H](NC(=O)c1cncnc1)c1nc(C(=O)NC2CCC(F)(F)CC2)cs1,≤ 10,–
COc1ccc(C(=O)N[C@H](c2nc(C(=O)NC3CCC(F)(F)CC3)cs2)C(C)C)cc1OC,11.9,–
COc1cc(C(=O)N[C@H](c2nc(C(=O)NC3CCNCC3)cs2)C(C)C)cc(OC)c1OC,14.5,46.3
CC(C)[C@H](NC(=O)c1cscn1)c1nc(C(=O)NC2CCC(F)(F)CC2)cs1,49.7,–
CC(C)[C@H](NC(=O)c1cccc(N=[N+]=[N-])c1)c1nc(C(=O)Nc2ccccc2C(=O)c2ccccc2)cs1,194,122
COc1cc(C(=O)N[C@H](c2nc(C(=O)N3CCC(N)CC3)cs2)C(C)C)cc(OC)c1OC,≤ 10,45.4
COc1cc(C(=O)N[C@H](c2nc(C(=O)NC3CCN(C(=O)OC(C)(C)C)CC3)cs2)C(C)C)cc(OC)c1OC,48,52.7
COc1cc(C(=O)N[C@H](c2nc(C(=O)NC3CCC(C)(C)CC3)cs2)C(C)C)cc(OC)c1OC,34.3,≤ 10
CC(C)[C@H](NC(=O)c1ccc(N=[N+]=[N-])cc1)c1nc(C(=O)Nc2ccccc2C(=O)c2ccc(Br)cc2)cs1,84.7,99.4
COc1cc(C(=O)N[C@H](c2nc(C(=O)NC3CCC(=O)CC3)cs2)C(C)C)cc(OC)c1OC,≤ 10,13.1
COc1cc(C(=O)N[C@H](c2nc(C(=O)NC3CCCC3)cs2)C(C)C)cc(OC)c1OC,≤ 10,≤ 10
